Source: patent US20190092792A1, “VINORELBINE MONOTARTRATE AND ITS PHARMACEUTICAL USE” (priority 2016, published 2019)
Read-outs that look alike come from different tables or passages of the source.

Key:
[1] = Comparable stressing stability study at 60° C. (total degradation impurities by HPLC); format: physicochemical; settings: for Total degradation impurities: 60° C.
Protocol: (§1) The degradation impurities are determined after a specific amount of time of incubation by means of HPLC.
(§2) The term “degradation impurities”, as used herein, is to be understood such a sample of the relevant product is subjected to HPLC analysis and calculation of the content of impurities in Vinorelbine is performed according to the method described in European Pharmacopoeia 7.0.
(§3) HPLC analysis and calculation of the content of impurities in Vinorelbine were performed according to the method described in European Pharmacopoeia 7.0.

[2] = xenon lamp 300-800 nm
Protocol: The term “photostability”, as used herein, is to be understood such that a sample of the product to be analyzed in a quantity of about 14 mg is placed in a 10 ml light glass volumetric flask and is exposed in a photo chamber to a xenon lamp (wave length 300-800 nm; fluence rate 250-765 W/m2). The amount of the known photo-degradation product 3,6-epoxy vinorelbine is determined after a specific amount of time of exposure by means of HPLC (High-performance liquid chromatography). The described photostability test procedure corresponds to the photostability determining method described in European Pharmacopoeia 7.0 using exposure time 2 hours.
Furthermore, a comparative photo-degradation analysis of crystalline vinorelbine monotartrate hydrate, according to the present invention and vinorelbine bitartrate was performed.
The samples (about 14 mg each) were placed in 10 ml light glass volumetric flasks and exposed in a photo chamber to a xenon lamp (wave length 300-800 nm; fluence rate 250-765 W/m^2). The amount of the known photo-degradation product 3,6-epoxy vinorelbine was determined at various time points by means of HPLC.

[3] = Thermostability of vinorelbine monotartrate solid forms at 5° C., 25° C. and 40° C. (degradation impurities by HPLC); format: physicochemical; settings: for Degradation products (%) 3,6-epoxy vinorelbine / Degradation products (%) Total / Degradation products (%) vinorelbine N-oxide: amorphous form, 40° C.
Protocol: as §1, §2
The term “degradation”, as used herein, is to be understood to relate to the total amount of identified (e.g. 3,6-epoxy vinorelbine, 4-O-deacetylvinorelbine and vinorelbine N-oxide) and unidentified degradation products that form in a sample after a particular incubation period.
as §3
Three further representative batches of crystalline vinorelbine monotartrate acetone solvate being produced according to Example 1 were analyzed for stability (i.e. batches no. 011213, no. 021213, and no. 010414). The samples were exposed to temperatures of 5° C. and 25° C. for three and six months, respectively. Batch no. 010414 was also exposed to a temperature of 40° C. (at 60%±2% relative humidity) for 15 days, 1 month, and two months, respectively.
Crystalline vinorelbine monotartrate hydrate being produced according to Example 5 were analyzed for stability. The samples were exposed to temperatures of 25° C. and 40° C. for three and six months, respectively.
In order to evaluate the thermostability and photostability of the compound the sample was exposed to a temperature of 40° C. for 2 weeks analyzed by HPLC.

CCC1=C[C@@H]2CN(C1)Cc1c([nH]c3ccccc13)[C@@](C(=O)OC)(c1cc3c(cc1OC)N(C)[C@H]1[C@@](O)(C(=O)OC)[C@H](OC(C)=O)[C@]4(CC)C=CCN5CC[C@]31[C@@H]54)C2.O=C(O)C(O)C(O)C(=O)O.O=C(O)C(O)C(O)C(=O)O [vinorelbine bitartrate, reference compound]
Total degradation impurities ([1]; 1 week): 9.8%
Photodegradation product (3,6-epoxy vinorelbine), % ([2]; exposure 0 min): 0.05%
Total impurities (excluding photodegradation product), % ([2]; exposure 0 min): 0.10%
Photodegradation product (3,6-epoxy vinorelbine), % ([2]; exposure 15 min): 0.16%
Total impurities (excluding photodegradation product), % ([2]; exposure 15 min): 0.10%
Photodegradation product (3,6-epoxy vinorelbine), % ([2]; exposure 30 min): 0.24%
Total impurities (excluding photodegradation product), % ([2]; exposure 30 min): 0.16%
Photodegradation product (3,6-epoxy vinorelbine), % ([2]; exposure 60 min): 0.35%
Total impurities (excluding photodegradation product), % ([2]; exposure 60 min): 0.20%
Photodegradation product (3,6-epoxy vinorelbine), % ([2]; exposure 120 min): 0.72%
Total impurities (excluding photodegradation product), % ([2]; exposure 120 min): 0.27%

vinorelbine monotartrate hydrate
thermostability, degradation ([1]; one week storage at 60° C.): less than 0.10%
Photodegradation product (3,6-epoxy vinorelbine), % ([2]; exposure 0 min): 0.03%
Total impurities (excluding photodegradation product), % ([2]; exposure 0 min): 0.10%
Photodegradation product (3,6-epoxy vinorelbine), % ([2]; exposure 15 min): 0.08%
Total impurities (excluding photodegradation product), % ([2]; exposure 15 min): 0.10%
Photodegradation product (3,6-epoxy vinorelbine), % ([2]; exposure 30 min): 0.14%
Total impurities (excluding photodegradation product), % ([2]; exposure 30 min): 0.10%
Photodegradation product (3,6-epoxy vinorelbine), % ([2]; exposure 60 min): 0.28%
Total impurities (excluding photodegradation product), % ([2]; exposure 60 min): 0.10%
Photodegradation product (3,6-epoxy vinorelbine), % ([2]; exposure 120 min): 0.44%
Total impurities (excluding photodegradation product), % ([2]; exposure 120 min): 0.17%
overall accumulation of degradation impurities ([3]; after 6 months at 25° C.): ≤ 0.02%
overall accumulation of degradation impurities ([3]; after 6 months at 40° C.): ≤ 0.15%

vinorelbine monotartrate [amorphous vinorelbine monotartrate]
Degradation products (%) 3,6-epoxy vinorelbine ([3]; 15 days): 0.13%
Degradation products (%) Total ([3]; 15 days): 1.08%
Degradation products (%) vinorelbine N-oxide ([3]; 15 days): 0.33%
Degradation products (%) 3,6-epoxy vinorelbine ([3]; initial): LT 0.05%
Degradation products (%) Total ([3]; initial): 0.13%
Degradation products (%) vinorelbine N-oxide ([3]; initial): LT 0.05%
stability (in words) ([3]; exposure to elevated temperature and humidity for an extended period): unstable
degradation (in words) ([3]; incubation for two weeks at 40° C.): significant degradation

vinorelbine monotartrate acetone solvate
Total degradation impurities ([1]; 1 week): LT 0.05%
Total degradation impurities ([1]; 3 weeks): 0.08%
Total degradation impurities ([1]; 8 weeks): 0.24%
chemical degradation (in words) ([1]; one week storage at 60° C.): didn't show any chemical degradation
degradation (in words) ([3]; six months storage at 5° C.+3° C.): almost no degradation
degradation (in words) ([3]; six months storage at 25° C.±2° C.): almost no degradation
degradation (in words) ([3]; two months storage at 40° C.): only minimal degradation
